Patent US7361659B2, “Pyrrazolo-pyrimidine derivatives” (Hoffmann-La Roche Inc., priority 2005, dated 2008)

Compound	melting point
NS(=O)(=O)c1cc(NC(=O)c2cnn3c(C(F)(F)F)cc(-c4ccc(Cl)cc4)nc23)c(Cl)s1 [Example 9, 5-(4-Chloro-phenyl)-7-trifluoromethyl-pyrazolo[1,5-a]pyrimidine-3-carboxylic acid (2-chloro-5-sulfamoyl-thiophen-3-yl)-amide]	329 °C
Cc1nc(NC(=O)c2cnn3c(C(F)(F)F)cc(-c4ccc(C(F)(F)F)c(Cl)c4)nc23)sc1S(=O)(=O)NC(C)(C)CO [Example 30, 5-(3-Chloro-4-trifluoromethyl-phenyl)-7-trifluoromethyl-pyrazolo[1,5-a]pyrimidine-3-carboxylic acid [5-(2-hydroxy-1,1-dimethyl-ethylsulfamoyl)-4-methyl-thiazol-2-yl]-amide]	274 °C
Cc1cc(-c2cc(C(F)F)n3ncc(C(=O)Nc4nc(C)c(S(N)(=O)=O)s4)c3n2)ccc1C(F)(F)F [Example 33, 7-Difluoromethyl-5-(3-methyl-4-trifluoromethyl-phenyl)-pyrazolo[1,5-a]pyrimidine-3-carboxylic acid (4-methyl-5-sulfamoyl-thiazol-2-yl)-amide]	307 °C
CC(CO)(CO)NS(=O)(=O)c1cc(NC(=O)c2cnn3c(C(F)F)cc(-c4ccc(C(F)(F)F)cc4)nc23)c(Cl)s1 [Example 37, 7-Difluoromethyl-5-(4-trifluoromethyl-phenyl)-pyrazolo[1,5-a]pyrimidine-3-carboxylic acid [2-chloro-5-(2-hydroxy-1-hydroxymethyl-1-methyl-ethylsulfamoyl)-thiophen-3-yl]-amide]	237 °C
O=C(Nc1cc(S(=O)(=O)N(CCO)CCO)sc1Cl)c1cnn2c(C(F)F)cc(-c3ccc(C(F)(F)F)cc3)nc12 [Example 34, 7-Difluoromethyl-5-(4-trifluoromethyl-phenyl)-pyrazolo[1,5-a]pyrimidine-3-carboxylic acid {5-[bis-(2-hydroxy-ethyl)-sulfamoyl]-2-chloro-thiophen-3-yl}-amide]	216 °C
Cc1cc(-c2cc(C(F)F)n3ncc(C(=O)Nc4nc(C)c(S(=O)(=O)NC(C)(C)CO)s4)c3n2)ccc1C(F)(F)F [Example 39, 7-Difluoromethyl-5-(3-methyl-4-trifluoromethyl-phenyl)-pyrazolo[1,5-a]pyrimidine-3-carboxylic acid [5-(2-hydroxy-1,1-dimethyl-ethylsulfamoyl)-4-methyl-thiazol-2-yl]-amide]	271 °C
CCOc1cc(-c2cc(C(F)(F)F)n3ncc(C(=O)Nc4cc(S(=O)(=O)NC(C)(C)CO)sc4Cl)c3n2)ccc1C(F)(F)F [Example 15, 5-(3-Ethoxy-4-trifluoromethyl-phenyl)-7-trifluoromethyl-pyrazolo[1,5-a]pyrimidine-3-carboxylic acid [2-chloro-5-(2-hydroxy-1,1-dimethyl-ethylsulfamoyl)-thiophen-3-yl]-amide]	234 °C
Cc1nc(NC(=O)c2cnn3c(C(F)(F)F)cc(-c4ccc(C(F)(F)F)c(Cl)c4)nc23)sc1S(N)(=O)=O [Example 25, 5-(3-Chloro-4-trifluoromethyl-phenyl)-7-trifluoromethyl-pyrazolo[1,5-a]pyrimidine-3-carboxylic acid (4-methyl-5-sulfamoyl-thiazol-2-yl)-amide]	299 °C
Cc1cc(-c2cc(C(F)(F)F)n3ncc(C(=O)Nc4cc(S(N)(=O)=O)sc4Cl)c3n2)ccc1C(F)(F)F [Example 11, 5-(3-Methyl-4-trifluoromethyl-phenyl)-7-trifluoromethyl-pyrazolo[1,5-a]pyrimidine-3-carboxylic acid (2-chloro-5-sulfamoyl-thiophen-3-yl)-amide]	283 °C
Cc1nc(NC(=O)c2cnn3c(C(F)(F)F)cc(-c4ccc(C(F)(F)F)cc4)nc23)sc1S(=O)(=O)NC(C)(C)CO [Example 13, 7-Trifluoromethyl-5-(4-trifluoromethyl-phenyl)-pyrazolo[1,5-a]pyrimidine-3-carboxylic acid [5-(2-hydroxy-1,1-dimethyl-ethylsulfamoyl)-4-methyl-thiazol-2-yl]-amide]	257 °C
NS(=O)(=O)c1cc(NC(=O)c2cnn3c(C(F)F)cc(-c4ccc(C(F)(F)F)cc4)nc23)c(Cl)s1 [Example 1, 7-Difluoromethyl-5-(4-trifluoromethyl-phenyl)-pyrazolo[1,5-a]pyrimidine-3-carboxylic-acid (2-chloro-5-sulfamoyl-thiophen-3-yl)-amide]	298 °C
Cc1nc(NC(=O)c2cnn3c(C(F)F)cc(-c4ccc(C(F)(F)F)cc4)nc23)sc1S(=O)(=O)NC(C)(C)CO [Example 14, 7-Difluoromethyl-5-(4-trifluoromethyl-phenyl)-pyrazolo[1,5-a]pyrimidine-3-carboxylic acid [5-(2-hydroxy-1,1-dimethyl-ethylsulfamoyl)-4-methyl-thiazol-2-yl]-amide]	268 °C
Cc1nc(NC(=O)c2cnn3c(C(F)(F)F)cc(-c4ccc(C(F)(F)F)c(OCC(F)(F)F)c4)nc23)sc1S(N)(=O)=O [Example 27, 5-[3-(2,2,2-Trifluoro-ethoxy)-4-trifluoromethyl-phenyl]-7-trifluoromethyl-pyrazolo[1,5-a]pyrimidine-3-carboxylic acid (4-methyl-5-sulfamoyl-thiazol-2-yl)-amide]	264 °C
CC(CO)(CO)NS(=O)(=O)c1cc(NC(=O)c2cnn3c(C(F)(F)F)cc(-c4ccc(C(F)(F)F)cc4)nc23)c(Cl)s1 [Example 38, 7-Trifluoromethyl-5-(4-trifluoromethyl-phenyl)-pyrazolo[1,5-a]pyrimidine-3-carboxylic acid [2-chloro-5-(2-hydroxy-1-hydroxymethyl-1-methyl-ethylsulfamoyl)-thiophen-3-yl]-amide]	201 °C

Further lines, results first:

melting point	Compound
311 °C	NS(=O)(=O)c1cnc(NC(=O)c2cnn3c(C(F)F)cc(-c4ccc(C(F)(F)F)cc4)nc23)s1 [Example 52, 7-Difluoromethyl-5-(4-trifluoromethyl-phenyl)-pyrazolo[1,5-a]pyrimidine-3-carboxylic acid (5-sulfamoyl-thiazol-2-yl)-amide]
217 °C	Cc1nc(NC(=O)c2cnn3c(C(F)F)cc(-c4ccc(C(F)(F)F)cc4)nc23)sc1S(=O)(=O)NCCN(C)C [Example 57, 7-Difluoromethyl-5-(4-trifluoromethyl-phenyl)-pyrazolo[1,5-a]pyrimidine-3-carboxylic acid [5-(2-dimethylamino-ethylsulfamoyl)-4-methyl-thiazol-2-yl]-amide]
309 °C	NS(=O)(=O)c1cnc(NC(=O)c2cnn3c(C(F)(F)F)cc(-c4ccc(C(F)(F)F)cc4)nc23)s1 [Example 51, 7-Trifluoromethyl-5-(4-trifluoromethyl-phenyl)-pyrazolo[1,5-a]pyrimidine-3-carboxylic acid (5-sulfamoyl-thiazol-2-yl)-amide]
191 °C	Cc1nc(NC(=O)c2cnn3c(C(F)F)cc(-c4ccc(C(F)(F)F)cc4)nc23)sc1S(=O)(=O)N(CCO)CCO [Example 40, 7-Difluoromethyl-5-(4-trifluoromethyl-phenyl)-pyrazolo[1,5-a]pyrimidine-3-carboxylic acid {5-[bis-(2-hydroxy-ethyl)-sulfamoyl]-4-methyl-thiazol-2-yl}-amide]
280 °C	CC(C)(CO)NS(=O)(=O)c1cnc(NC(=O)c2cnn3c(C(F)F)cc(-c4ccc(C(F)(F)F)cc4)nc23)s1 [Example 60, 7-Difluoromethyl-5-(4-trifluoromethyl-phenyl)-pyrazolo[1,5-a]pyrimidine-3-carboxylic acid [5-(2-hydroxy-1,1-dimethyl-ethylsulfamoyl)-thiazol-2-yl]-amide]
214 °C	Cc1nc(NC(=O)c2cnn3c(C(F)(F)F)cc(-c4ccc(C(F)(F)F)cc4)nc23)sc1S(=O)(=O)N(CCO)CCO [Example 41, 7-Trifluoromethyl-5-(4-trifluoromethyl-phenyl)-pyrazolo[1,5-a]pyrimidine-3-carboxylic acid {5-[bis-(2-hydroxy-ethyl)-sulfamoyl]-4-methyl-thiazol-2-yl}-amide]
198 °C	CN(C)CCNS(=O)(=O)c1cc(NC(=O)c2cnn3c(C(F)(F)F)cc(-c4ccc(C(F)(F)F)cc4)nc23)c(Cl)s1 [Example 55, 7-Trifluoromethyl-5-(4-trifluoromethyl-phenyl)-pyrazolo[1,5-a]pyrimidine-3-carboxylic acid [2-chloro-5-(2-dimethylamino-ethylsulfamoyl)-thiophen-3-yl]-amide]
195 °C	NCCNS(=O)(=O)c1cc(NC(=O)c2cnn3c(C(F)(F)F)cc(-c4ccc(C(F)(F)F)cc4)nc23)c(Cl)s1 [Example 78, 7-Trifluoromethyl-5-(4-trifluoromethyl-phenyl)-pyrazolo[1,5-a]pyrimidine-3-carboxylic acid [5-(2-amino-ethylsulfamoyl)-2-chloro-thiophen-3-yl]-amide]
134 °C	Cc1nc(NC(=O)c2cnn3c(C(F)F)cc(-c4ccc(C(F)(F)F)cc4)nc23)sc1S(=O)(=O)NCCO [Example 45, 7-Difluoromethyl-5-(4-trifluoromethyl-phenyl)-pyrazolo[1,5-a]pyrimidine-3-carboxylic acid [5-(2-hydroxy-ethylsulfamoyl)-4-methyl-thiazol-2-yl]-amide]
292 °C	CC(C)(CO)NS(=O)(=O)c1cnc(NC(=O)c2cnn3c(C(F)(F)F)cc(-c4ccc(C(F)(F)F)cc4)nc23)s1 [Example 59, 7-Trifluoromethyl-5-(4-trifluoromethyl-phenyl)-pyrazolo[1,5-a]pyrimidine-3-carboxylic acid [5-(2-hydroxy-1,1-dimethyl-ethylsulfamoyl)-thiazol-2-yl]-amide]
293 °C	CN1CCN(S(=O)(=O)c2cc(NC(=O)c3cnn4c(C(F)F)cc(-c5ccc(C(F)(F)F)cc5)nc34)c(Cl)s2)CC1 [Example 73, 7-Difluoromethyl-5-(4-trifluoromethyl-phenyl)-pyrazolo[1,5-a]pyrimidine-3-carboxylic acid [2-chloro-5-(4-methyl-piperazine-1-sulfonyl)-thiophen-3-yl]-amide]
297 °C	Cc1sc(S(N)(=O)=O)cc1NC(=O)c1cnn2c(C(F)(F)F)cc(-c3ccc(C(F)(F)F)cc3)nc12 [Example 47, 7-Trifluoromethyl-5-(4-trifluoromethyl-phenyl)-pyrazolo[1,5-a]pyrimidine-3-carboxylic acid (2-methyl-5-sulfamoyl-thiophen-3-yl)-amide]
